Reference: patent US5369103A, “Piperazine derivatives” (John Wyeth & Brother, Limited, priority 1990, dated 1994)

How the values were obtained:
5HT1A receptor [1] = target: T1, 5HT1A receptor (Rattus norvegicus, UniProt P19327); test: 5HT1A receptor binding activity in rat hippocampal membrane homogenate; conditions: read-out: 1C50
T1 construct: rat hippocampal membrane homogenate; from tissue; host or cells: rat hippocampus, membrane homogenate
T1 sequence (P19327 1-422): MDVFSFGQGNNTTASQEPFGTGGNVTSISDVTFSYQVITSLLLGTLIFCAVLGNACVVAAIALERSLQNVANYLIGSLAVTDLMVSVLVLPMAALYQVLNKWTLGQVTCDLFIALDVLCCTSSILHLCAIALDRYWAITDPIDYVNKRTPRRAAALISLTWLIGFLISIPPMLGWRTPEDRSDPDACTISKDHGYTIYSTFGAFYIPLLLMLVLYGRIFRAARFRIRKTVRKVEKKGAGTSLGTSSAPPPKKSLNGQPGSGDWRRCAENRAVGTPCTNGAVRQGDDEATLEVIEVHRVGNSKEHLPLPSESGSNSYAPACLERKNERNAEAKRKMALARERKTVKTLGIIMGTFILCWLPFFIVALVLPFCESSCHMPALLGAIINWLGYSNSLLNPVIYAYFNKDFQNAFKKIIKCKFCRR
Experimental: The compounds of the invention were tested for 5HT1A receptor binding activity in rat hippocampal membrane homogenate by the method of B. S. Alexander and M. D. Wood, J Pharm Pharmacol, 1988, 40,888-891. The results for representative compounds of the invention are given below

α1 sites = test: affinity for α1 sites; assay type: binding; conditions: read-out: 1C50
5HT1A receptor [2] = target: T2, 5HT1A receptor (Cavia porcellus, UniProt A0A286Y074); test: 5HT1A receptor antagonism: antagonism of 5-carboxamidotryptamine in the guinea-pig ileum in vitro; assay type: cell-based; conditions: read-out: pA2 (converted)
T2 construct: guinea-pig ileum in vitro; from tissue; host or cells: guinea-pig ileum
T2 sequence (A0A286Y074 1-421): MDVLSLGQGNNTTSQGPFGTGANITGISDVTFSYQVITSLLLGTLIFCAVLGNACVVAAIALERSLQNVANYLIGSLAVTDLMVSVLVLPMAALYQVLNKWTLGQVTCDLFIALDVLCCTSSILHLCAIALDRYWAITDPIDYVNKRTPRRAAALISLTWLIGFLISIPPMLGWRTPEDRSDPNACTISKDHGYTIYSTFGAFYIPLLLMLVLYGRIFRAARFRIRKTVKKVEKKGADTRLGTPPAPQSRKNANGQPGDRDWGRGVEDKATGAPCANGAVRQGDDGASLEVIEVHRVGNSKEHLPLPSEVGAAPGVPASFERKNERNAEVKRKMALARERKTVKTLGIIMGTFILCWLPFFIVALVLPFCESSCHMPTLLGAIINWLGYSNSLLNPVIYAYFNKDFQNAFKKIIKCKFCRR
Experimental: The compounds are tested for 5HT1A receptor antagonism activity in a test involving the antagonism of 5-carboxamidotryptamine in the guinea-pig ileum in vitro (based upon the procedure of Fozard et al, Br J Pharmac, 1985, 86, 601P).

IC50 (5HT1A receptor [1]) | IC50 (α1 sites) | Kb (5HT1A receptor [2]) | SMILES
9 nM | 2160 nM |  | COc1ccccc1N1CCN(C/C(=C/C(=O)N2CCCCCC2)c2ccccc2)CC1 [Example 3 (E-isomer), 2,3,4,5,6,7-Hexahydro-1-[4-(4-(2-methoxyphenyl)piperazin-1-yl)-3-phenylbut-2-enoyl]-1H-azepine]
1.38 nM | 682 nM | 0.794 nM | COc1ccccc1N1CCN(CC(CC(=O)N2CCCCCC2)c2ccccc2)CC1 (centres unmarked) [Example 6, 2,3,4,5,6,7-Hexahydro-1-[4-(4-(2-methoxyphenyl)piperazin-1-yl)-3-phenylbutanoyl]-1H-azepine]
